Laboratory results as given in patent US11446315B2, “Enhancement of CD47 blockade therapy by proteasome inhibitors” (PF Argentum IP Holdings LLC, priority 2016, dated 2022).

B1: vSIRPαFc: high affinity CV1 variant of V region of human SIRPα fused with mutated IgG4, SEQ ID No. 12 (protein, listed as Homo sapiens)
chain: EEELQIIQPDKSVSVAAGESAILHCTITSLFPVGPIQWFRGAGPARVLIYNQRQGPFPRVTTVSETTKRENMDFSISISNITPADAGTYYCIKFRKGSPDTEFKSGAGTELSVRAKPSESKYGPPCPPCPAPPVAGPSVFLFPPKPKDTLMISRTPEVTCVVVDVSQEDPEVQFNWYVDGVEVHNAKTKPREEQFNSTYRVVSVLTVLHQDWLNGKEYKCKVSNKGLPSSIEKTISKAKGQPREPQVYTLPPSQEEMTKNQVSLTCLVKGFYPSDIAVEWESNGQPENNYKTTPPVLDSDGSFFLYSRLTVDKSRWQEGNVFSCSVMHEALHNHYTQKSLSLSLGK
B2: CD47 mAb: CD47 monoclonal antibody B6H12, variable regions SEQ ID Nos. 13 and 14 (antibody, V domains shown)
VH: EVQLVESGGDLVKPGGSLKLSCAASGFTFSGYGMSWVRQTPDKRLEWVATITSGGTYTYYPDSVKGRFTISRDNAKNTLYLQIDSLKSEDTAIYFCARSLAGNAMDYWGQGTSVTVSS
VL: DIVMTQSPATLSVTPGDRVSLSCRASQTISDYLHWYQQKSHESPRLLIKFASQSISGIPSRFSGSGSGSDFTLSINSVEPEDVGVYYCQNGHGFPRTFGGGTKLEIK
modifications: Murine

Tests used:
Assay type in all cases: cell-based, human
[1] = tested on: MM1.S multiple myeloma (MM) cell line; assay: Macrophage phagocytosis assay, MM1.S tumor cells pre-cultured with proteasome inhibitor (FIGS. 3A-3F); settings: MM1.S cultured 48 hours in bortezomib (10 nM), carfilzomib (10 nM) or ixazomib (25 nM); CD47 blockade drug at 100 nM, 2 hours co-culture; untreated vs proteasome inhibitor treated tumor cells, unpaired t-test
Procedure: (§1) FIGS. 3A-3F show the effect of proteasome inhibition on phagocytosis mediated by CD47 blockade, from an experiment supplemental to that represented in FIGS. 1A-1B and 2A-2B. The diffuse large cell lymphoma (DLBCL) cell line SU-DHL-6 and the multiple myeloma (MM) cell line MM1.S were cultured in the presence or absence of the proteasome inhibitors bortezomib (10 nM), carfilzomib (10 nM) or ixazomib (25 nM) for 48 hours. Cells were thereafter washed; macrophages and SIRPαFc proteins, CD47 monoclonal antibody (CD47 mAb) or Control Fc (at 100 nM) were added, and the mixture was then subjected to the phagocytosis assay as described infra.
(§2) To generate the results represented in FIGS. 3A-3F, macrophages were prepared from human peripheral blood mononuclear cells (PBMCs) obtained from healthy donors (BioreclamationIVT); informed consent was obtained from all donors. CD14+ monocytes were isolated by positive selection using the EasySep® human monocyte isolation kit (Stemcell Technologies). Monocytes were differentiated into macrophages by culturing the cells in X-VIVO 15 media (Lonza) supplemented with human m-CSF (PeproTech) for 10 days. Macrophages were primed with human IFNγ (PeproTech) one day prior to the phagocytosis assay. 48 hours prior to the phagocytosis assay, bortezomib (10 nM), carfilzomib (10 nM) or ixazomib (25 nM) were added to tumor cells. On the day of the phagocytosis assay, tumor cells (MM1.S or SU-DHL-6) were labeled with Violet Proliferation Dye 450 (BD Biosciences) and cultured with IFNγ-primed macrophages. Macrophages and tumor cells were co-cultured for 2 hours in the presence of 100 nM SIRPαFc (V region of human SIRPα variant 2 fused with IgG1 Fc), SIRPαFc (V region of human SIRPα variant 2 fused with IgG4 Fc), vSIRPαFc (high affinity CV1 variant of V region of human SIRPα fused with mutated IgG4) [SEQ ID No. 12], CD47 monoclonal antibody B6H12 [SEQ ID Nos. 13 and 14] or Control Fc (wild type human IgG4 with stabilized hinge). Cells were subsequently stained with a viability dye, APC-conjugated anti-human CD14 (61D3, eBioscience), and PE-conjugated anti-human CD11b (ICRF44, eBioscience). Macrophages were identified as live, single, CD14+CD11b+ cells. Doublets were excluded by SSC-W and SSC-H discrimination. Percent phagocytosis was assessed as the percent of macrophages that were VPD450+. Unpaired t-tests comparing the percentage of phagocytosis of untreated vs proteasome inhibitor treated tumor cells were performed (*P≤0.05, **P≤0.01, ***P≤0.001).

[2] = tested on: H929 multiple myeloma cell line; assay: Macrophage phagocytosis assay, H929 tumor cells pre-cultured with proteasome inhibitor (FIGS. 1B, 2B)
Procedure: (§3) FIGS. 1A and 1B show results when the multiple myeloma cell lines MM1s and H929 are cultured in the presence of the proteasome inhibitor bortezomib (at either 1, 5 or 10 nM) for 48 hours. The 0 result represents phagocytosis of cells that were not treated with bortezomib. Cells are then washed; macrophages and SIRPαFc (at 1, 5 or 100 nM) or Control Fc are added and the mixture is then subjected to the phagocytosis assay described herein.
(§4) FIGS. 2A and 2B show results from an experiment in which bortezomib is replaced by the proteasome inhibitor carfilzomib, which is then investigated as described in FIGS. 1A-1B. The 0 result represents phagocytosis of cells that were not treated with carfilzomib.
(§5) To generate the results represented in FIGS. 1A-1B and 2A-2B, heparinized whole blood was obtained from normal healthy human donors (Biological Specialty Corporation) and informed consent was obtained from all donors. Peripheral blood mononuclear cells (PBMCs) were isolated over Ficoll-Paque Plus density gradient (GE Healthcare) and CD14+ monocytes were isolated from PBMCs by positive selection using CD14 antibody-coated MicroBead separation (Miltenyi Biotec). […] Phagocytosis was assessed as % VPD450+ cells of live, single CD14+CD11b+macrophages by flow cytometry. […]

[3] = tested on: MM1s multiple myeloma cell line; assay: Macrophage phagocytosis assay, MM1s tumor cells pre-cultured with proteasome inhibitor (FIGS. 1A, 2A)
Procedure: as §3, §4, §5

[4] = tested on: SU-DHL-6 diffuse large cell lymphoma (DLBCL) cell line; assay: Macrophage phagocytosis assay, SU-DHL-6 tumor cells pre-cultured with proteasome inhibitor (FIGS. 3A-3F); settings: SU-DHL-6 cultured 48 hours in bortezomib (10 nM), carfilzomib (10 nM) or ixazomib (25 nM); CD47 blockade drug at 100 nM, 2 hours co-culture; untreated vs proteasome inhibitor treated tumor cells, unpaired t-test
Procedure: as §1, §2

Molecule	Percent phagocytosis mediated by CD47 blockade (percent of macrophages VPD450+) [1]	SIRPαFc-mediated phagocytosis (% VPD450+ of live, single CD14+CD11b+ macrophages) ([2]; H929 cultured in bortezomib (1, 5 or 10 nM) for 48 hours, then macrophages and SIRPαFc (1, 5 or 100 nM), versus cells not treated with bortezomib)	SIRPαFc-mediated phagocytosis (% VPD450+ of live, single CD14+CD11b+ macrophages) ([3]; MM1s cultured in bortezomib (1, 5 or 10 nM) for 48 hours, then macrophages and SIRPαFc (1, 5 or 100 nM), versus cells not treated with bortezomib)	Percent phagocytosis mediated by CD47 blockade (percent of macrophages VPD450+) [4]	SIRPαFc-mediated phagocytosis (% VPD450+ of live, single CD14+CD11b+ macrophages) ([2]; H929 cultured in 10 nM carfilzomib for 48 hours, at all concentrations of SIRPαFc tested (1, 5 or 100 nM), versus cells not treated with carfilzomib)	SIRPαFc-mediated phagocytosis (% VPD450+ of live, single CD14+CD11b+ macrophages) ([3]; MM1s cultured in 10 nM carfilzomib for 48 hours, at all concentrations of SIRPαFc tested (1, 5 or 100 nM), versus cells not treated with carfilzomib)
CC(C)C[C@H](NC(=O)[C@H](Cc1ccccc1)NC(=O)c1cnccn1)B(O)O [bortezomib]	significantly increased SIRPαFc-mediated phagocytosis or CD47 mAb-mediated phagocytosis	increased SIRPαFc-mediated phagocytosis	increased SIRPαFc-mediated phagocytosis	significantly increased SIRPαFc-mediated phagocytosis or CD47 mAb-mediated phagocytosis	–	–
CC(C)C[C@H](NC(=O)[C@H](CCc1ccccc1)NC(=O)CN1CCOCC1)C(=O)N[C@@H](Cc1ccccc1)C(=O)N[C@@H](CC(C)C)C(=O)[C@@]1(C)CO1 [carfilzomib]	significantly increased SIRPαFc-mediated phagocytosis or CD47 mAb-mediated phagocytosis	–	–	significantly increased SIRPαFc-mediated phagocytosis or CD47 mAb-mediated phagocytosis	significant increase in SIRPαFc-mediated phagocytosis	significant increase in SIRPαFc-mediated phagocytosis
CC(C)C[C@H](NC(=O)CNC(=O)c1cc(Cl)ccc1Cl)B(O)O [ixazomib]	significantly increased SIRPαFc-mediated phagocytosis or CD47 mAb-mediated phagocytosis	–	–	significantly increased SIRPαFc-mediated phagocytosis or CD47 mAb-mediated phagocytosis	–	–
SIRPαFc (V region of human SIRPα variant 2 fused with IgG4 Fc): V region of human SIRPα variant 2 fused with IgG4 Fc	significant increase in phagocytosis	–	–	significant increase in phagocytosis	–	–
B1	significant increase in phagocytosis	–	–	significant increase in phagocytosis	–	–
B2	significant increase in phagocytosis	–	–	significant increase in phagocytosis	–	–
